{"source": "patent US20240131112A1", "about": "“USE OF METHANOBACTIN FOR TREATMENT OF IRON-RELATED DISEASES” (Helmholtz Zentrum Muenchen - Deutsches Forschungszentrum …, priority 2021, published 2024)", "key": {"[1]": {"test_system": "Huh7 cells (human hepatoma cell line)", "assay": "Cellular iron concentration in iron-preloaded Huh7 cells", "assay_type": "cell-based", "conditions": "Huh7 preloaded 24 hours with 50 μM FAC, then 0.5 mM test substance for 24 hours, N=4", "method": "FIG. 5: Control Huh7 cells (human hepatoma cell line) were preloaded for 24 hours with 50 μM FAC. The cells were then treated with 0.5 mM MB-SB2, 0.5 mM MB-OB3b and 0.5 mM DFO for 24 hours. […] Statistical analysis was done by One-way ANOVA (N=4)."}, "LPP Atp7b^−/− rats": {"test_system": "LPP Atp7b^−/− rats", "assay": "Fecal iron excretion after intraperitoneal injection", "assay_type": "in vivo, rat", "conditions": "i.p. twice a day for four days, 110 mg/kg bw MB-SB2 or 150 mg/kg bw MB-OB3b, ICP-OES", "method": "LPP Atp7b^−/− rats were injected intraperitoneally (i.p.) twice a day for four consecutive days with either 110 mg/kg bw MB-SB2 or 150 mg/kg bw MB-OB3b. Rats were housed individually in metabolic cages for 4 days. Feces of each rat was collected in 24-hour periods at 24, 48, 72 and 96 hours after treatment start. Feces was separated from chow residues, dried, homogenized by grinding or milling and digested with concentrated HNO3 and iron content determined with inductively coupled plasma optical emission spectrometry (ICP-OES)."}, "[2]": {"test_system": "livers from LPP Atp7b^−/− rats", "assay": "Liver perfusion experiments, biliary iron excretion", "parameters": "species or system rat", "conditions": "liver perfusion one hour at 37° C., 35 μmol methanobactin, ICP-OES", "method": "Cannulated livers from LPP Atp7b^−/− rats were perfused for one hour at 37° C. with Krebs-Ringer bicarbonate solution, gassed with 95% O2 and 5% CO2, and MB-SB2 or MB-OB3b (35 μmol). During perfusion total bile was collected in 10-minute intervals. Biliary iron concentrations were determined by inductively coupled plasma optical emission spectrometry (ICP-OES) as described (Lichtmannegger et al. J Clin Invest, 2016, 126, 2721-2735)."}}, "data": [{"smiles": "CC(NC(=O)C(C)NC(=S)C1N=C(C(NC(=O)C(CO)NC(=O)C(C)NC(=S)C2N=C(C(=O)CCCNC(=N)N)NC2=O)C(C)OS(=O)(=O)O)OC1=O)C(=O)O", "note": "(stereo not drawn) [MB-SB2]", "values": [{"measurement": "Cellular iron concentration", "setting": "[1]", "result": "significantly reduces cellular iron concentration in iron-preloaded Huh7 cells to the untreated level"}, {"measurement": "Fecal iron excretion", "setting": "LPP Atp7b^−/− rats", "result": "excrete iron in feces"}, {"measurement": "Biliary iron excretion", "setting": "[2]", "result": "brings iron to the bile"}]}]}
